Target: T1, ABHD6 (Mus musculus, UniProt Q8R2Y0)
T1 construct: full-length mouse ABHD6, pcDNA3.1 myc-His, overexpressed in HEK293T (membrane fraction)
T1 sequence (Q8R2Y0 1-336): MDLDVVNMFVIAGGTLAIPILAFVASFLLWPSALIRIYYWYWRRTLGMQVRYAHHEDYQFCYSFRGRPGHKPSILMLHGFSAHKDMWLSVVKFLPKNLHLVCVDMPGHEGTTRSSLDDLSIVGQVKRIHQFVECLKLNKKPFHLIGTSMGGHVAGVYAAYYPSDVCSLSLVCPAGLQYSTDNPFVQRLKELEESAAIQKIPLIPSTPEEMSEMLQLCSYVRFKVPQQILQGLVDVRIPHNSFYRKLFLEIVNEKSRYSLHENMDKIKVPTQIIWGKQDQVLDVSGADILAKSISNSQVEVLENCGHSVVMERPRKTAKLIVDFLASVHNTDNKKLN
Test: competitive gel-based ABPP dose response with FP-rhodamine; lyso-PS lipase LC-MS assay; in vivo ABPP
Format: biochemical

- IC50: < 10 nM
Structure (SMILES): O=C(c1cccc(-c2ccc(-c3cn(C(=O)N4CCCCC4c4ccccc4)nn3)cc2)c1)N1CCCCC1 (stereo not shown) [KT185]

From paper PMC11808726, “Identification of ABHD6 as a lysophosphatidylserine lipase in the mammalian liver and kidneys” (The Journal of Biological Chemistry, 2025)
